Reference: US11311514B2, “Pharmaceutical composition for preventing or treating pruritus, containing pyrazole derivative as active ingredient, and screening method for detecting same” (Seoul National University R&DB Foundation, priority 2017, dated 2022)

Assays:
MRGPR X1 = biological target: T1, MRGPR X1 (Homo sapiens, UniProt Q96LB2); assay: MRGPR X1 screening assay (calcium dye fluorescence, chloroquine-stimulated); type: cell-based; details: Mrgpr X1 stable HEK 293T FRT cells; final 12 μM compound, 500 μM chloroquine, 0.2% DMSO
T1 construct: expressed in transfected cells
Experimental: Human MRGPRX1 gene was sub-cloned in pcDNA5 FRT vector, which was transfected into HEK 293T FRT cells. The cells were cultured in a 37° C., 5% CO2 incubator for 48 hours.
To confirm the amount with which a single colony is well formed, the transfected cells were serially diluted and then transferred and distributed on 100 mm dish evenly. The medium was replaced with a fresh medium containing 50/g/ ? of hygromycin every 3-4 days. The cells were cultured until colonies were formed.
Once colonies were formed, only a single colony was transferred to a 24 well plate, followed by culture. Then, well grown cells were transferred to a 6 well plate, followed by culture. Antibiotic selection was performed. […]
First, MRGPR X1 stable cells were counted to make 8000 cells/well, followed by seeding in a Poly-D-Lysine coated plate 384 well black/clear plate. […]
Upon completion of the incubation, dye was discarded and Na-HEPES buffer was added thereto (25 ? /well) for washing, and then buffer was added thereto (25 ? /well) again. 25 ? of the primary candidate material was added to each well of the assay plate containing 25 ? of buffer, followed by reading the plate (final 12 μM compound, 500 μM chloroquine, 0.2% DMSO). […]
The experimental results were analyzed using a microplate reader (Flexstaion Π^384, Molecular Devices). […]

[1] = biological target: T2, human histamine 1 receptor (hH1R) (Homo sapiens, UniProt P35367); assay: Human histamine 1 receptor antagonist assay (calcium dye fluorescence, histamine-stimulated); type: cell-based; details: HEK 293T cells transiently expressing hH1R; final 12 μM compound, 1 μM histamine, 0.2% DMSO; control 5 μM diphenhydramine; read-out: reduction of fluorescence, taking the inhibition by histamine plus diphenhydramine as 100%
T2 construct: expressed in transfected cells; host or cells: HEK 293T cells, transient transfection
Experimental: HEK 293T cells were transiently transfected with 2 μg of human histamine 1 receptor, followed by seeding at the density of 4000 cells/well. The cells were cultured in a 37° C., 5% CO2 incubator for 48 hours.
The subsequent procedure was performed using Biomex FX. After eliminating the medium, flo-3 AM dye dissolved in Na-HEPES buffer (5 mM KCl, 2 mM MgCl2, 140 mM NaCl, 10 mM NaOH-HEPES, pH7.2) at the concentration of 2.5 μM was added to the plate (25 ? /well) of the vehicle and experimental groups, and flo-3 AM dye dissolved in Na-HEPES buffer containing 5 uM diphenhydramine dissolved therein at the concentration of 2.5 μM was added to the plate (25 ? /well) of the control group, followed by culture in a 37° C., 5% CO2 incubator for 30 minutes.
During the culture, a compound plate was prepared. […]
Upon completion of the incubation, dye was discarded and Na-HEPES buffer was added thereto (25 ? /well) for washing, and then buffer was added thereto (25 ? /well) again (excluding control group wells). […] Finally, 25 ? of the compound was added to each well of the assay plate containing 25 ? of buffer, followed by reading the plate (final 12 μM compound, 1 μM histamine, 0.2% DMSO).
The experimental results were analyzed using a microplate reader (Flexstaion Π^384, Molecular Devices). Fluorescence assay was performed (Ex 488 nm, Em 535 nm) at the intervals of 3.2 seconds for 80 seconds. […]

[2] = Solubility in blood (selection of final compound); type: physicochemical; details: result in words; no method given
histamine mouse model = assay: Pruritus evaluation in histamine mouse model; type: in vivo, C57BL6 mice; details: 30 mg/kg intraperitoneal, 30 min before histamine 500 μg s.c. dorsal; control group 118.38
Experimental: (§1) Seven week-old C57BL6 mice were placed in a new cage and adapted for 30 minutes before starting the experiment. As for the control group, 3% DMSO was dissolved in physiological saline (0.9% saline), which was intraperitoneally injected (50 ? /mouse). The animal model mice were intraperitoneally injected with the pharmaceutical composition of Example 1 (30 mg/kg) dissolved in physiological saline (0.9% saline) containing 3% DMSO (50 ? /mouse). The mice were also ? placed in the same cage above for 30 minutes.
(§2) Then, control and animal model mice were subcutaneously injected with 500 μg/50 ? of histamine on the dorsal side, and their behaviors were recorded with a digital video camera for 30 minutes. The number of scratches was recorded while playing back the recorded video file on a computer. A continuous action of scratching the skin from when the mouse lifted its hind foot off the floor and to when the mouse put it back on the floor was considered 1 scratch, and the number of scratches counted for 30 minutes was used as index for evaluating pruritus.

chloroquine mouse model = assay: Pruritus evaluation in chloroquine mouse model; type: in vivo, C57BL6 mice; details: 30 mg/kg intraperitoneal, 30 min before chloroquine 200 μg s.c. dorsal; control group 425.00
Experimental: as §1
as §2, with “200” for “500”, “chloroquine” for “histamine”

dry skin mouse model = assay: Pruritus evaluation in dry skin mouse model; type: in vivo, C57BL6 mice; details: 30 mg/kg intraperitoneal on Day 5 of acetone/ether/water treatment; recorded 30 min later; control group 130.00
Experimental: First, a dry skin mouse model was constructed. A dry skin mouse model was prepared according to the instruction described Jpn J Pharmacol. 2002 March; 88(3):285-92. ENTOBAR® was mixed with physiological saline (0.9% saline) at the ratio of 1:1, which was intraperitoneally injected in 7-week-old C57BL6 mice (20 ? /mouse) to anesthetize the mice. Then, the hair of the right nape was shaved using a clipper. Ethyl ether and acetone were mixed at the ratio of 1:1. The mixture was soaked in absorbent cotton and the right nape was rubbed with the absorbent cotton for 1 minute. Then, absorbent cotton soaked with water was used to rub in the same way. This process was performed once in the morning and once in the afternoon for 5 days.
as §2, with “Next, pruritus evaluation in the dry skin mouse model was performed. In the afternoon on Day 5, the” for “Then,”, “group” for “and animal model”, “intraperitoneally” for “subcutaneously”, “3% DMSO dissolved in physiological saline (0.9% saline) (50” for “500 μg/50”, “/mouse). […] 30 minutes later,” for “of histamine on the dorsal side, and”, “digital” for “digital video”

mouse motor ability = assay: Rota rod motor condition test; type: in vivo; details: 30 mg/kg intraperitoneal, tested after 30 minutes; Rota rod speed 4 to 40
Experimental: The test mouse was placed on the Rota rod device and then the speed was raised from 4 to 40 until the mouse fell. When the mouse fell, it was moved to a cage. The procedure was repeated three times a day for 3 consecutive days to adapt the mouse to the Rota rod device. After three days of adaptation, the mouse was moved to a cage where it was stabilized.
As for the control group, 3% DMSO was dissolved in physiological saline (0.9% saline), which was intraperitoneally injected (50 ? /mouse). The animal model mice were intraperitoneally injected with the pharmaceutical composition of Example 1 (30 mg/kg) dissolved in physiological saline (0.9% saline) containing 3% DMSO (50 ? /mouse). The mice were also placed in the same cage above for 30 minutes. The experiment above was repeated three times like the adaptation test above, and the average time of falling was calculated.

[3] = tested on: psoriatic mouse model (Aldara cream, 5% imiquimod); assay: Pruritus evaluation in psoriatic mouse model; type: in vivo, C57BL6 mice; details: 30 mg/kg intraperitoneal on day 8 after 7 days Aldara cream; counted for 30 minutes; normal group 20.00, control group 71.00
Experimental: First, a psoriatic mouse model was constructed. A psoriatic mouse model was prepared according to the instruction described Pain. 2016 November; 2536-2543. Zoletil (15 mg/kg) was mixed with saline at the ratio of 1:1 and then mixed with Rompun (5 mg/kg), which was intraperitoneally injected in 7-week-old C57BL6 mice to anesthetize the mice. The mouse back was primarily depilated in the size of 2.5×2 cm using a clipper, and then secondly depilated using a straight blade. Vaseline cream was rubbed on the depilated area of the normal group for 7 days using a cotton swap. Aldara cream (62.5 mg, 5% imiquimod) was rubbed on the depilated area of the control group and the experimental group for 7 days using a cotton swap.
as §2, with “Next, pruritus evaluation in the psoriatic mouse model was performed. On day 8, the normal group and” for “Then,”, “group” for “and animal model”, “intraperitoneally” for “subcutaneously”, “3% DMSO dissolved in physiological saline (0.9% saline) (50” for “500 μg/50”, “/mouse). […] 30 minutes later,” for “of histamine on the dorsal side, and”, “digital” for “digital video”

T1 sequence (Q96LB2 whole entry): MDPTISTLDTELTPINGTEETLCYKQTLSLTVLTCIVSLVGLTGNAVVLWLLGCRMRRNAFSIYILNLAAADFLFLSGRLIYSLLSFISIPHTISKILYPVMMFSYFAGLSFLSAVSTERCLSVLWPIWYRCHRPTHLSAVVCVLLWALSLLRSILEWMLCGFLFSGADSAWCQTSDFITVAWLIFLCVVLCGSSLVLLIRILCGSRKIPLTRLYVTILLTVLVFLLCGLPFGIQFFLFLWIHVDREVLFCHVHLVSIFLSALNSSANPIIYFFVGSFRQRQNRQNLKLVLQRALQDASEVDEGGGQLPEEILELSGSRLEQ
T2 sequence (P35367 whole entry): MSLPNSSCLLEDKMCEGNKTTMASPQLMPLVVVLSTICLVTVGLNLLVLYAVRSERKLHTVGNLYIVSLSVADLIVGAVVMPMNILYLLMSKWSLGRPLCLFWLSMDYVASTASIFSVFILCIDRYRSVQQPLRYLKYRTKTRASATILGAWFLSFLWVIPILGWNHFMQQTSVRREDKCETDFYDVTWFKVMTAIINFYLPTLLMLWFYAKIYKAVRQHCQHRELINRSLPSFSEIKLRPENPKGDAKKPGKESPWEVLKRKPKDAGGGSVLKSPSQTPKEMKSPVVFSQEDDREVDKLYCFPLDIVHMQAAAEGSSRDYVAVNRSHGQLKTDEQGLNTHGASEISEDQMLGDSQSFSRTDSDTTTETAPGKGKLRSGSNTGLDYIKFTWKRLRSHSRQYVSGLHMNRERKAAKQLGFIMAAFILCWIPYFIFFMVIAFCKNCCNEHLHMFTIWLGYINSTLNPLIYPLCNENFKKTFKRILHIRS

Cc1ccc(-n2nc(C)cc2C(=O)NCCCC(=O)O)cc1 [Example 1]
decline of fluorescence analysis result versus chloroquine alone (MRGPR X1): approximately 54% | inhibition at 12 µM [1]: ~94% | solubility in blood [2]: excellent solubility in blood | average number of total scratches accumulated for 30 minutes (histamine mouse model): 39.90 times | average number of total scratches accumulated for 30 minutes (chloroquine mouse model): 150.50 times | average number of total scratches accumulated for 30 minutes (dry skin mouse model): 14.00 times | motor condition ability (average time of falling) versus control group (mouse motor ability): no significant difference | average number of total scratches [3]: 1.00
